{
  "source": "PubChem BioAssay AID2305",
  "about": "(GlaxoSmithKline (GSK), 2010)",
  "note": "pIC50: −log10 of the molar value.",
  "data": [
    {"tested_on": "P. falciparum 3D7 growth, pLDH absorbance", "assay": "blood-stage malaria parasite growth potency – strain 3D7, dose response (AID 2305)", "values": [
      {"smiles": "COc1cccc(Nc2nc(C)cc(NCc3ccc(-n4ccnc4)cc3)n2)c1", "pIC50": 6.02},
      {"smiles": "CCC/C=C/c1c(CNCCCNc2cc(=O)c3ccccc3[nH]2)sc(CC)c1Br", "pIC50": 6.05},
      {"smiles": "COc1ccc(CNCc2cccc(-c3cccc(-c4nc5c(C)cccc5[nH]4)c3)c2)cc1", "pIC50": 6.89},
      {"smiles": "N#Cc1ccc2c(c1)CCN(CCC1CCC(NC(=O)c3cc4cccc(Cl)c4[nH]3)CC1)CC2", "note": "(centres undefined)", "pIC50": 6.24},
      {"smiles": "O=C(/C=C/c1ccc(Cl)c(Cl)c1)NCCCCCN1CCC(CCNC(=O)/C=C/c2ccccc2F)CC1", "pIC50": 6.06},
      {"smiles": "CC(C)Cn1cc(C2CCN(CCN3CCC(CNC(=O)c4ccc(-c5ccc(C#N)cc5)cc4)CC3)CC2)c2ccccc21", "pIC50": 6.10},
      {"smiles": "CCNc1cc(C(=O)N[C@@H](Cc2ccccc2)[C@H](O)CNCc2cccc(OC)c2C)cc(N2CCCCS2(=O)=O)c1", "pIC50": 6.28},
      {"smiles": "CS(=O)(=O)c1ccc(CCNCc2ccc(-c3ccc(CNC4Cc5ccccc5C4)cc3)nc2)cc1", "pIC50": 6.12},
      {"smiles": "O=C(Nc1cccc(OCCN2CCCC2)c1)Nc1ccc(Cl)c(Cl)c1", "pIC50": 6.11},
      {"smiles": "Fc1ccc2nc(-c3cccc(-c4ccc(CNCC5CCCO5)cc4)c3)[nH]c2c1", "note": "(centres undefined)", "pIC50": 6.27},
      {"smiles": "Cc1ccc2c(NN=Cc3ccccc3[N+](=O)[O-])cc(C)nc2c1", "pIC50": 6.38},
      {"smiles": "O=C(/C=C/c1cccc2ccccc12)NCCCCCN1CCC(c2c[nH]c3ccccc23)CC1", "pIC50": 5.94},
      {"smiles": "Cc1nc2nc(N)nc(N)c2c(C)c1Cc1ccc(Cl)cc1", "pIC50": 6.66},
      {"smiles": "CC(C)Cn1ncc2c3c(N)nc(N)nc3ccc21", "pIC50": 6.80},
      {"smiles": "O=C(Nc1cccc(-c2cccc(-c3nc4ccccc4[nH]3)c2)c1)Nc1ccc(F)c(F)c1F", "pIC50": 7.22},
      {"smiles": "CCOC(=O)N1NC(=O)N(c2ccccc2)C1(c1ccccc1)c1ccccc1", "pIC50": 6.15},
      {"smiles": "Cn1ccnc1CCC(=O)Nc1ccc(Cl)cc1C(=O)Nc1ccc(Cl)cc1", "pIC50": 5.81},
      {"smiles": "CCCc1cc(OC)c(C[C@H]2c3cc(O)c(Cl)cc3CCN2C)cc1OC", "pIC50": 6.24},
      {"smiles": "C[C@H]1[C@H](c2cccc(Cl)c2)OCC(C)(C)N1C(=O)CCN1CCCCC1", "pIC50": 6.04},
      {"smiles": "Cc1cc(N[C@@H](Cc2ccccc2)C(=O)NCc2cccs2)nc(NCCc2ccccc2)n1", "pIC50": 6.10},
      {"smiles": "CCOC(=O)c1cn(CC)c2cc(O[C@@H]3CCN(C(=O)OC(C)(C)C)C3)ccc2c1=O", "pIC50": 6.54},
      {"smiles": "COC(=O)c1c(C#N)c(OC)cc(O)c1CSC[C@H](Nc1nc(-c2ccc([N+](=O)[O-])cc2)cs1)C(=O)NCCN1CCCCC1", "pIC50": 5.97},
      {"smiles": "Cc1cc(NN=Cc2cccc(F)c2)c2cccc(C)c2n1", "pIC50": 6.11},
      {"smiles": "Cc1cc(OCC2CCCO2)c2cc(NC(=O)C(=O)Nc3ccc4nc(C)cc(OCC5CCCO5)c4c3)ccc2n1", "note": "(centres undefined)", "pIC50": 6.10},
      {"smiles": "O=C(CSc1n[nH]c(-c2ccccc2Br)n1)c1c[nH]c2ccccc12", "pIC50": 6.01},
      {"smiles": "O=S(=O)(NC1CCN(c2ccnc3cc(Cl)ccc23)C1)c1cccs1", "note": "(centres undefined)", "pIC50": 6.15},
      {"smiles": "Fc1cccc(COc2ccc(Nc3ncnc4sc(C#CCNC5CCCC5)cc34)cc2Cl)c1", "pIC50": 6.11},
      {"smiles": "O=c1ccc(CNc2nc(NCCc3ccccc3)nc3cc(Cl)ccc23)c[nH]1", "pIC50": 6.52},
      {"smiles": "Cc1cccc(Nc2nccc(Nc3cccc(C(=O)NCCN4CCOCC4)c3)n2)c1", "pIC50": 5.85},
      {"smiles": "CC(=O)Nc1ccc(Nc2ncc([N+](=O)[O-])c(Nc3ccccc3C(N)=O)n2)cc1", "pIC50": 6.43},
      {"smiles": "Cc1nc2nc(N)nc(N)c2c(C)c1Cc1c(Cl)cccc1Cl", "pIC50": 7.30},
      {"smiles": "O=C(Nc1cccnc1)c1cc(-c2cc(Cl)ccc2O)n[nH]1", "pIC50": 6.14},
      {"smiles": "COc1cc2cc(Cc3cnc(N)nc3N)ccc2c(OC)c1OC", "pIC50": 6.62},
      {"smiles": "CN1CCN(CC(=O)Nc2ccc(-c3cccc(-c4nc5ccc(F)cc5[nH]4)c3)cc2)CC1", "pIC50": 6.08},
      {"smiles": "COc1ccc2ncc(F)c(CCN3CCC(NCc4cc(OC)c5c(c4)OCCO5)CC3)c2n1", "pIC50": 6.24},
      {"smiles": "COc1cccc(COCC(O)CN(CCc2ccccn2)C(=O)c2ccccc2F)c1", "note": "(centres undefined)", "pIC50": 6.09},
      {"smiles": "CCOc1ccccc1C(=O)N1CCc2cc3nccc(N4CCN5CCC[C@H]5C4)c3cc21", "pIC50": 6.12},
      {"smiles": "CN(C)CCC1CCN(CCS(=O)(=O)c2cccc(Nc3ncc(-c4cccc(F)c4)cn3)c2)CC1", "pIC50": 5.97},
      {"smiles": "CCN(CC)CCN(Cc1ccc(-c2ccc(C(F)(F)F)cc2)cc1)C(=O)Cn1c(CCc2ccc(F)c(F)c2F)nc(=O)c2ccc(F)cc21", "pIC50": 6.13},
      {"smiles": "CN1CCN(CCCN(Cc2cccc(-c3cccc(CNC4CCCC4)c3)c2)C(=O)/C=C/c2ccccc2)CC1", "pIC50": 6.11},
      {"smiles": "Cc1cc(NC(=O)c2cccs2)ccc1OC1CCN(Cc2ccc(C#N)cc2)CC1", "pIC50": 6.14},
      {"smiles": "COc1ccc(C(=O)NC(Nc2ccc([N+](=O)[O-])cc2)C(Cl)(Cl)Cl)cc1", "note": "(centres undefined)", "pIC50": 5.97},
      {"smiles": "CCC(C)c1ccc(NC(=O)Nc2ccc(Cn3ncc(N4CCCNCC4)c(Cl)c3=O)cc2)cc1", "note": "(centres undefined)", "pIC50": 5.99},
      {"smiles": "CC(C)C[C@@H](/C=N/NC(N)=O)NC(=O)[C@H](CC(C)C)NC(=O)[C@H](CC(C)C)NC(=O)OCc1ccccc1", "pIC50": 6.82},
      {"smiles": "N#Cc1ccc2c(c1)CCN(CCC1CCC(NC(=O)c3cc4ccc(Cl)cc4[nH]3)CC1)C2", "note": "(centres undefined)", "pIC50": 6.15},
      {"smiles": "O=C(NCc1ccc(Cl)cc1)c1ccc(CN2CCCN(Cc3cccc(O)c3)CC2)cc1", "pIC50": 5.93},
      {"smiles": "CCN(CC)S(=O)(=O)n1ncc2c3c(N)nc(N)nc3ccc21", "pIC50": 7.30},
      {"smiles": "Oc1ccccc1CNCC(O)c1cccc(C(F)(F)F)c1", "note": "(centres undefined)", "pIC50": 6.28},
      {"smiles": "CC(C)c1ccc(OCC(O)CN(CCN2CCOCC2)C(=O)Nc2ccc(Br)cc2)cc1", "note": "(centres undefined)", "pIC50": 6.14}
    ]}
  ]
}
